Like-named read-outs stand apart in the source and are kept apart here.
Legend:
KRAS (WT) = target: T1, KRAS (WT) (Homo sapiens, UniProt P01116); assay: In-vitro RAS-RAF binding assay (RRB), HTRF/FRET; format: biochemical; settings: read-out: Inhibition of RAS-RAF Binding (in-vitro) KRAS (WT) IC50
T1 construct: Biotinylated KRAS protein amino acids 1-169 (produced at Erasca); made in house
Description: (§1) Biotinylated KRAS protein amino acids 1-169 (produced at […]) is labeled with streptavidin-terbium (lanthanide cryptate donor fluorophore) in assay buffer (50 mM HEPES, pH 7.5, 100 mM NaCl, 1 mM MgCl2, 1 mM DTT) at a final concentration of 30 nM. In a separate reaction mixture, 30 nM cRAF (RBD) (Abcam, Cambridge MA) is labeled with anti-GST d2 (acceptor fluorophore). Labeling reactions are incubated for 1 hour at room temperature. […] Following the compound incubation, SOS1 catalytic domain (produced at […]) and GTPgS are added to the reaction to initiate nucleotide exchange (60 minutes exchange reaction). Once in the GTP state KRAS will bind to cRAF. No binding will occur if KRAS remains in the GDP state. Compounds may block nucleotide exchange or may create a steric obstruction to cRAF-KRAS interaction by binding to the RAS effector site. […] A portion of this mixture is transferred to a white 384-well plate (20 uL per well in duplicate) and read on an HTRF compatible plate reader (ClarioSTAR). Fluorescent resonance energy transfer (FRET) is measured at equilibrium. FRET signal will be high if KRAS-cRAF binding occurs. FRET signal will be low if KRAS-cRAF binding is inhibited by the test compound. Table 2 represents the average of multiple runs of each compound.

KRAS G12D = KRAS G12D (Homo sapiens, UniProt P01116, G12D); assay: In-vitro RAS-RAF binding assay (RRB), HTRF/FRET; format: biochemical; design: Biotinylated KRAS protein amino acids 1-169 (produced at Erasca); made in house; settings: read-out: Inhibition of RAS-RAF Binding (in-vitro) KRAS (G12D) IC50
Chain of KRAS G12D (P01116 1-169 isoform P01116-2 G12D): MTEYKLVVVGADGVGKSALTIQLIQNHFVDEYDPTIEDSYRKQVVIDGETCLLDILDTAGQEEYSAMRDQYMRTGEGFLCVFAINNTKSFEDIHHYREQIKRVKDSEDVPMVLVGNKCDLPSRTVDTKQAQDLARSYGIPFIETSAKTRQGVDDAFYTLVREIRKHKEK
Description: as §1

[1] = Table 2, average of multiple runs of each compound

T1 sequence (P01116 1-169 isoform P01116-2): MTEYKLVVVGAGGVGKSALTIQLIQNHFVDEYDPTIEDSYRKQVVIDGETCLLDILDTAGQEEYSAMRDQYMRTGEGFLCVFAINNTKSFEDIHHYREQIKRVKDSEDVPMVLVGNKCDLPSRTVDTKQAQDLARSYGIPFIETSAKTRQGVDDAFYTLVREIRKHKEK

## C[C@H](NC(=O)[C@@H]1C[C@@H](O)CN1C(=O)[C@@H](NC(=O)CCCCN1CCC[C@H]1COc1nc(N2CC3CCC(C2)N3)c2cnc(-c3cc(O)cc4cccc(F)c34)c(F)c2n1)C(C)(C)C)c1ccc(-c2cccc(F)c2)cc1 [Example 86, (2S,4R)-1-((2S)-2-(5-((2S)-2-(((4-(3,8-diazabicyclo[3.2.1]octan-3-yl)-8-fluoro-7-(8-fluoro-3-hydroxynaphthalen-1-yl)pyrido[4,3-d]pyrimidin-2-yl)oxy)methyl)pyrrolidin-1-yl)pentanamido)-3,3-dimethylbutanoyl)-N-((S)-1-(3′-fluoro-[1,1′-biphenyl]-4-yl)ethyl)-4-hydroxypyrrolidine-2-carboxamide]
KRAS (WT); [1]
  IC50: 568 nM
KRAS G12D; [1]
  IC50: 9.05 nM

## C#Cc1c(F)ccc2cc(O)cc(-c3ncc4c(N5CC6CCC(C5)N6)nc(OC[C@@H]5CCCN5CCCOCCC(=O)N[C@H](C(=O)N5C[C@H](O)C[C@H]5C(=O)N[C@@H](C)c5ccc(-c6cccnc6C(F)(F)F)cc5)C(C)(C)C)nc4c3F)c12 [Example 48, (2S,4R)-1-((2S)-2-(3-(3-((2S)-2-(((4-(3,8-diazabicyclo[3.2.1]octan-3-yl)-7-(8-ethynyl-7-fluoro-3-hydroxynaphthalen-1-yl)-8-fluoropyrido[4,3-d]pyrimidin-2-yl)oxy)methyl)pyrrolidin-1-yl)propoxy)propanamido)-3,3-dimethylbutanoyl)-4-hydroxy-N-((S)-1-(4-(2-(trifluoromethyl)pyridin-3-yl)phenyl)ethyl)pyrrolidine-2-carboxamide]
KRAS (WT); [1]
  IC50: 24.7 nM
KRAS G12D; [1]
  IC50: 7.53 nM

## C#Cc1c(F)ccc2cc(O)cc(-c3ncc4c(N5CC6CCC(C5)N6)nc(OC[C@@H]5CCCN5CCCOCCC(=O)N[C@H](C(=O)N5C[C@H](O)C[C@H]5C(=O)N[C@@H](C)c5ccc(-c6cc(F)c(F)c(F)c6)cc5)C(C)(C)C)nc4c3F)c12 [Example 52, (2S,4R)-1-((2S)-2-(3-(3-((2S)-2-(((4-(3,8-diazabicyclo[3.2.1]octan-3-yl)-7-(8-ethynyl-7-fluoro-3-hydroxynaphthalen-1-yl)-8-fluoropyrido[4,3-d]pyrimidin-2-yl)oxy)methyl)pyrrolidin-1-yl)propoxy)propanamido)-3,3-dimethylbutanoyl)-4-hydroxy-N-((S)-1-(3′,4′,5′-trifluoro-[1,1′-biphenyl]-4-yl)ethyl)pyrrolidine-2-carboxamide]
KRAS (WT); [1]
  IC50: 114 nM
KRAS G12D; [1]
  IC50: 7.84 nM

## Cc1ncsc1-c1ccc([C@H](C)NC(=O)[C@@H]2C[C@@H](O)CN2C(=O)[C@@H](NC(=O)CCOCCCN2CCC[C@H]2COc2nc(N3CC4CCC(C3)N4)c3cc(C(F)(F)F)c(-c4ccc(F)c5sc(N)c(C#N)c45)cc3n2)C(C)(C)C)cc1 [Example 80, (2S,4R)-1-((2S)-2-(3-(3-((2S)-2-(((7-(2-amino-3-cyano-7-fluorobenzo[b]thiophen-4-yl)-4-(3,8-diazabicyclo[3.2.1]octan-3-yl)-6-(trifluoromethyl)quinazolin-2-yl)oxy)methyl)pyrrolidin-1-yl)propoxy)propanamido)-3,3-dimethylbutanoyl)-4-hydroxy-N-((S)-1-(4-(4-methylthiazol-5-yl)phenyl)ethyl)pyrrolidine-2-carboxamide]
KRAS (WT); [1]
  IC50: 63.7 nM
KRAS G12D; [1]
  IC50: 13.9 nM

## C#Cc1c(F)ccc2cc(O)cc(-c3ncc4c(N5CC6CCC(C5)N6)nc(OC[C@@H]5CCCN5CCCOCCC(=O)O[C@H](C(=O)N5C[C@H](O)C[C@H]5C(=O)N[C@@H](C)c5ccc(-c6c(C)cccc6C(F)(F)F)cc5)C(C)(C)C)nc4c3F)c12 [Example 50, (S)-1-((2S,4R)-4-hydroxy-2-(((S)-1-(2′-methyl-6′-(trifluoromethyl)-[1,1′-biphenyl]-4-yl)ethyl)carbamoyl)pyrrolidin-1-yl)-3,3-dimethyl-1-oxobutan-2-yl 3-(3-((2S)-2-(((4-(3,8-diazabicyclo[3.2.1]octan-3-yl)-7-(8-ethynyl-7-fluoro-3-hydroxynaphthalen-1-yl)-8-fluoropyrido[4,3-d]pyrimidin-2-yl)oxy)methyl)pyrrolidin-1-yl)propoxy)propanoate]
KRAS (WT); [1]
  IC50: 98.9 nM
KRAS G12D; [1]
  IC50: 10.2 nM

## Cc1ncsc1-c1ccc([C@H](C)NC(=O)[C@@H]2C[C@@H](O)CN2C(=O)[C@@H](NC(=O)CCCCN2CCC[C@H]2COc2nc(N3CC4CCC(C3)N4)c3cnc(-c4cc(O)cc5cccc(F)c45)c(F)c3n2)C(C)(C)C)cc1 [Example 82, (2S,4R)-1-((2S)-2-(5-((2S)-2-(((4-(3,8-diazabicyclo[3.2.1]octan-3-yl)-8-fluoro-7-(8-fluoro-3-hydroxynaphthalen-1-yl)pyrido[4,3-d]pyrimidin-2-yl)oxy)methyl)pyrrolidin-1-yl)pentanamido)-3,3-dimethylbutanoyl)-4-hydroxy-N-((S)-1-(4-(4-methylthiazol-5-yl)phenyl)ethyl)pyrrolidine-2-carboxamide]
KRAS (WT); [1]
  IC50: 304 nM
KRAS G12D; [1]
  IC50: 8.52 nM

## C#Cc1c(F)ccc2cc(O)cc(-c3ncc4c(N5CC6CCC(C5)N6)nc(OCCN5CCC(F)(COc6cc([C@H](C(=O)N7C[C@H](O)C[C@H]7C(=O)N[C@@H](C)c7ccc(-c8c(F)cccc8F)cc7)C(C)C)on6)CC5)nc4c3F)c12 [Example 62, (2S,4R)-1-((2R)-2-(3-((1-(2-((4-(3,8-diazabicyclo[3.2.1]octan-3-yl)-7-(8-ethynyl-7-fluoro-3-hydroxynaphthalen-1-yl)-8-fluoropyrido[4,3-d]pyrimidin-2-yl)oxy)ethyl)-4-fluoropiperidin-4-yl)methoxy)isoxazol-5-yl)-3-methylbutanoyl)-N-((S)-1-(2′,6′-difluoro-[1,1′-biphenyl]-4-yl)ethyl)-4-hydroxypyrrolidine-2-carboxamide]
KRAS (WT); [1]
  IC50: > 10000 nM
KRAS G12D; [1]
  IC50: 13.4 nM

## C#Cc1c(F)ccc2cc(O)cc(-c3ncc4c(N5CC6CCC(C5)N6)nc(OC[C@@H]5CCCN5CCCOCCC(=O)N[C@H](C(=O)N5C[C@H](O)C[C@H]5C(=O)N[C@@H](C)c5ccc(-c6c(F)cccc6F)nc5)C(C)(C)C)nc4c3F)c12 [Example 31, (2S,4R)-1-((2S)-2-(3-(3-((2S)-2-(((4-(3,8-diazabicyclo[3.2.1]octan-3-yl)-7-(8-ethynyl-7-fluoro-3-hydroxynaphthalen-1-yl)-8-fluoropyrido[4,3-d]pyrimidin-2-yl)oxy)methyl)pyrrolidin-1-yl)propoxy)propanamido)-3,3-dimethylbutanoyl)-N—((S)-1-(6-(2,6-difluorophenyl)pyridin-3-yl)ethyl)-4-hydroxypyrrolidine-2-carboxamide]
KRAS (WT); [1]
  IC50: 27.8 nM
KRAS G12D; [1]
  IC50: 8.38 nM

## Cc1cc(N)nc(-c2c(Cl)cc3c(N4CC5CCC(C4)N5)nc(OC[C@@H]4CCCN4CCCOCCCOc4cc(-c5scnc5C)ccc4CNC(=O)[C@@H]4C[C@@H](O)CN4C(=O)[C@H](NC(=O)C4(F)CC4)C(C)(C)C)nc3c2F)c1C(F)(F)F [Example 3, (2S,4R)—N-[[2-[3-[3-[(2S)-2-[[7-[6-amino-4-methyl-3-(trifluoromethyl)-2-pyridyl]-6-chloro-4-(3,8-diazabicyclo[3.2.1]octan-3-yl)-8-fluoro-quinazolin-2-yl]oxymethyl]pyrrolidin-1-yl]propoxy]propoxy]-4-(4-methylthiazol-5-yl)phenyl]methyl]-1-[(2R)-2-[(1-fluorocyclopropanecarbonyl)amino]-3,3-dimethyl-butanoyl]-4-hydroxy-pyrrolidine-2-carboxamide]
KRAS (WT); Table 1
  IC50: > 10000 nM
KRAS (WT); [1]
  IC50: > 10000 nM
KRAS G12D; Table 1
  IC50: 64 nM
KRAS G12D; [1]
  IC50: 64.3 nM

## C#Cc1c(F)ccc2cc(O)cc(-c3ncc4c(N5CC6CCC(C5)N6)nc(OC[C@@H]5CCCN5CCCOCCC(=O)N[C@H](C(=O)N5C[C@H](O)C[C@H]5C(=O)N[C@@H](C)c5ccc(-c6c(C)ccc(C)c6C)cc5)C(C)(C)C)nc4c3F)c12 [Example 56, (2S,4R)-1-((2S)-2-(3-(3-((2S)-2-(((4-(3,8-diazabicyclo[3.2.1]octan-3-yl)-7-(8-ethynyl-7-fluoro-3-hydroxynaphthalen-1-yl)-8-fluoropyrido[4,3-d]pyrimidin-2-yl)oxy)methyl)pyrrolidin-1-yl)propoxy)propanamido)-3,3-dimethylbutanoyl)-4-hydroxy-N-((S)-1-(2′,3′,6′-trimethyl-[1,1′-biphenyl]-4-yl)ethyl)pyrrolidine-2-carboxamide]
KRAS (WT); [1]
  IC50: 65.7 nM
KRAS G12D; [1]
  IC50: 9.36 nM

## C#Cc1c(F)ccc2cc(O)cc(-c3ncc4c(N5CC6CCC(C5)N6)nc(OCCN5CCC(C)(COc6cc([C@H](C(=O)N7C[C@H](O)C[C@H]7C(=O)N[C@@H](C)c7ccc(-c8c(F)cccc8F)cc7)C(C)C)on6)CC5)nc4c3F)c12 [Example 61, (2S,4R)-1-((2R)-2-(3-((1-(2-((4-(3,8-diazabicyclo[3.2.1]octan-3-yl)-7-(8-ethynyl-7-fluoro-3-hydroxynaphthalen-1-yl)-8-fluoropyrido[4,3-d]pyrimidin-2-yl)oxy)ethyl)-4-methylpiperidin-4-yl)methoxy)isoxazol-5-yl)-3-methylbutanoyl)-N-((S)-1-(2′,6′-difluoro-[1,1′-biphenyl]-4-yl)ethyl)-4-hydroxypyrrolidine-2-carboxamide]
KRAS (WT); [1]
  IC50: 1200 nM
KRAS G12D; [1]
  IC50: 8.99 nM

Source: patent publication US20240293558A1, “KRAS INHIBITOR CONJUGATES” (Erasca, Inc., priority 2021, published 2024)
